# Test results as given in ChEMBL document CHEMBL3244291, “Synthesis and antiinflammatory activity of 6-oxo-1-(beta-D-ribofuranosyl)nocotinic acid and related derivatives” (J Med Chem, 1978).
# Active and inactive are the calls of the source. The rule behind the calls is not given here.
# Experiments:
# [1] = system: Rattus norvegicus; test: Antiinflammatory activity in Wistar rat mycobacterial adjuvant-induced arthritis model assessed as suppression of secondary lesions at 30 mg/kg/day, po measured on day 14; assay type: functional, organism-based
# [2] = system: Rattus norvegicus; test: Toxicity in Wistar rat mycobacterial adjuvant-induced arthritis model assessed as increase in body weight at 30 mg/kg/day, po after 14 days (reference value: 19 g); assay type: organism-based; parameters: route oral; settings: in vivo, 336 h
# [3] = system: Rattus norvegicus; test: Antiinflammatory activity in Wistar rat mycobacterial adjuvant-induced arthritis model assessed as inhibition of swelling at 30 mg/kg/day, po measured on day 14 relative to control; assay type: functional; settings: 336 h
# [4] = system: Rattus norvegicus; test: Antiinflammatory activity in Wistar rat mycobacterial adjuvant-induced arthritis model assessed as inhibition of swelling at 30 mg/kg/day, po measured on day 3 relative to control; assay type: functional; settings: 72 h
Compound,Activity [1],Activity [2] [g],inhibition in vivo at 30 mg/kg/day [3] [%],inhibition in vivo at 30 mg/kg/day [4] [%]
O=C(O)c1ccc(=O)n([C@@H]2O[C@H](CO)[C@@H](O)[C@H]2O)c1,inactive,22,37,21
COc1ccc2cc([C@H](C)C(=O)O)ccc2c1 [NAPROXEN],,,65,
